Ends that are not written are not given here.

In one experiment the test system is Rhizoctonia solani. The experiment can be described thus: Inhibitory concentrations of antimicrobial peptides and antibiotics against Rhizoctonia solani in vitro. Type of experiment: cell-based. The settings on record: for IC50: ± std, read-out: IC50, concentration that inhibits 50% growth of fungal cultures vs control. Also noted: MIC, minimum concentration that completely inhibits growth of fungal cells: unit: μM.

In experiment [1] the test system is phytopathogenic bacteria and fungi. Description: Antibacterial and antifungal resistance of Arabidopsis expressing antimicrobial peptides. Conditions: carbonic anhydrase promoter, rice endochitinase signal peptide. The class given is in vivo. The text has this: Including the acidic peptide is thus a preferred aspect of practicing the invention, although it may not be required. Tagging the βPTH precursor with EGFP greatly impaired antimicrobial activity in the mature peptide, even though EGFP was fused to the C-terminus of the acidic protein, the portion that was post-translationally cleaved.

The test system of the next experiment is fungal cultures. The settings on record: literature values (Thevissen et al. 1996; Oard et al. 2004); read-out: IC50, concentration of a peptide that inhibits 50% growth of fungal cultures relative to control; cited from earlier work.
For experiment [2], the system named is Neurospora crassa and Saccharomyces cerevisiae. Also noted: dose or concentration left out as unconfirmed. Conditions: concentration as low as; cited from earlier work.

In the case of `CC[C@H](C)[C@H](NC(=O)CN)C(=O)NCC(=O)N[C@@H](C)C(=O)N[C@H](C(=O)N[C@@H](CC(C)C)C(=O)N[C@@H](CCCCN)C(=O)N[C@H](C(=O)N[C@@H](CC(C)C)C(=O)N[C@H](C(=O)N[C@H](C(=O)NCC(=O)N[C@@H](CC(C)C)C(=O)N1CCC[C@H]1C(=O)N[C@@H](C)C(=O)N[C@@H](CC(C)C)C(=O)N[C@H](C(=O)N[C@@H](CO)C(=O)N[C@@H](Cc1c[nH]c2ccccc12)C(=O)N[C@H](C(=O)N[C@@H](CCCCN)C(=O)N[C@@H](CCCNC(=N)N)C(=O)N[C@@H](CCCCN)C(=O)N[C@@H](CCCNC(=N)N)C(=O)N[C@@H](CCC(N)=O)C(=O)N[C@@H](CCC(N)=O)C(N)=O)[C@@H](C)CC)[C@@H](C)CC)[C@@H](C)O)[C@@H](C)O)C(C)C)C(C)C` [Melittin], in the experiment on Rhizoctonia solani, the “MIC, minimum concentration that completely inhibits growth of fungal cells” value turned out to be 13.1 µmol and the IC50 worked out at 7100 ± 600 nM.

Regarding `C[C@@H]([C@H](N)C(=O)N[C@H](C(=O)O)[C@H]1O[C@@H](n2ccc(=O)[nH]c2=O)[C@H](O)[C@@H]1O)[C@H](O)c1ccc(O)cn1` [Nikkomycin Z], in the experiment on Rhizoctonia solani, the “MIC, minimum concentration that completely inhibits growth of fungal cells” value worked out at 4.5 µmol and the IC50 is 860 ± 100 nM.

Take `C[C@@H]1[C@H](O)[C@@H](C)/C=C/C=C/CC/C=C/C=C/C=C/C=C/C(O[C@H]2O[C@H](C)[C@@H](O)[C@H](N)[C@@H]2O)CC2O[C@](O)(CC(O)C(O)CCC(O)CC(O)CC(O)CC(=O)O[C@H]1C)CC(O)C2C(=O)O` (some centres unmarked) [Nystatin]: in the experiment with Rhizoctonia solani, the “MIC, minimum concentration that completely inhibits growth of fungal cells” value stood at 5.2 µmol and the IC50 was determined as 1100 ± 300 nM.

“Cecropin B (KWKVFKKIEKMGRNIRNGIVKAGPAIAVLGEAKAL; ends and bridges not checked; UniProt P01508 27-61, looked up) [natural 35-residue peptide from the Cecropia moth]”: in experiment [1], the “Antimicrobial resistance in vivo of Arabidopsis expressing the peptide” value is on record as “only antibacterial activity, not antifungal activity”. Further, in the experiment on Rhizoctonia solani, the “MIC, minimum concentration that completely inhibits growth of fungal cells” value was 9.8 µmol and the IC50 came to 4600 ± 300 nM.

Turning to Magainin II, in the experiment with Rhizoctonia solani, the “MIC, minimum concentration that completely inhibits growth of fungal cells” value was determined as 30.2 µmol and the IC50 turned out to be 15700 ± 900 nM.

Take “α-Hordothionin (KSCCRSTLGRNCYNLCRVRGAQKLCAGVCRCKLTSSGKCPTGFPK) [barley seed-specific thionin, GenBank X05901]”: the IC50 in the experiment on fungal cultures is 1000 nM.

Take α-purothionin: in experiment [2], the “Inhibition of fungal growth” value was “up to 50%”.

For the molecule β-Purothionin [βPTH], in experiment [1], the “Antimicrobial resistance in vivo of Arabidopsis expressing the peptide” value is “the greatest antibacterial and antifungal resistance”. Moreover, in the experiment on Rhizoctonia solani, the “MIC, minimum concentration that completely inhibits growth of fungal cells” value turned out to be 5.02 µmol and the IC50 is 1140 ± 400 nM. For the same molecule, in the experiment with fungal cultures, the IC50 is 1100 nM.
